Laboratory results: US20230265094A1, “RIPK1 INHIBITORS AND METHODS OF USE” (Merck Sharp & Dohme LLC, priority 2020, published 2023)
Counter-ions that a name gives are not always drawn.

Biological target: T1, RIPK1 (Homo sapiens, UniProt Q13546)
T1 construct: recombinant GST-RIPK1 kinase domain (residues 1-327) enzyme produced from baculovirus-transfected Sf21 cells; host or cells: baculovirus-transfected Sf21 insect cells
T1 sequence (Q13546 1-327): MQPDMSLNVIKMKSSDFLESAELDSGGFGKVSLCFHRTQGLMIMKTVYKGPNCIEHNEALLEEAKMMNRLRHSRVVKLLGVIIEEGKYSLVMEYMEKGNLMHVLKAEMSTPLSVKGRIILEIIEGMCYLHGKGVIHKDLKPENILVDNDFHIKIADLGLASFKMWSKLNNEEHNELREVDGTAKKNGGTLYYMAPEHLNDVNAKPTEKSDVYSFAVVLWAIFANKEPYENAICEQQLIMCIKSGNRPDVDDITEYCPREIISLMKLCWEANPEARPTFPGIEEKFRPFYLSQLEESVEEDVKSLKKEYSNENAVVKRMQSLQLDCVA
Assay: RIPK1-ADP-Glo enzymatic assay
Type: biochemical
Conditions: ADP-Glo luminescent ADP detection; 25 nM GST-RIPK1 kinase domain (residues 1-327), 300 μM ATP, dephosphorylated-MBP substrate; 30 min pre-incubation, 150 min reaction
Method in brief: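 GST-RIPK1 kinase domain (residues 1-327, Sf21-expressed), 25 nM final, pre-incubated 30 min with compound (10-point 1:3 series from 100000 nM), then reacted 150 min with 300 μM ATP and 3 μM dephosphorylated MBP in HEPES pH 7.3 buffer. ADP read by ADP-Glo luminescence; EC50 from four-parameter fit.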

SMILES | EC50
O=C(N1CC(c2cccnc2)C1)N1N=CC[C@H]1c1cc(F)cc(F)c1 [Example 1.42, (S)-(5-(3,5-difluorophenyl)-4,5-dihydro-1H-pyrazol-1-yl)(3-(pyridin-3-yl)azetidin-1-yl)methanone, TFA salt] | 28.6 nM
O=C(N1CC(F)(F)C1)N1N=CC[C@H]1c1cc(F)cc(F)c1 [Example 1.32, (S)-(3,3-difluoroazetidin-1-yl)(5-(3,5-difluorophenyl)-4,5-dihydro-1H-pyrazol-1-yl)methanone] | 17.2 nM
CS(=O)(=O)C1CN(C(=O)N2N=CC[C@H]2c2cc(F)cc(F)c2)C1 [Example 1.54, (S)-(5-(3,5-difluorophenyl)-4,5-dihydro-1H-pyrazol-1-yl)(3-(methylsulfonyl)azetidin-1-yl)methanone] | 4230 nM
O=C(N1CC(F)(c2ccccc2)C1)N1N=CC[C@H]1c1cc(F)cc(F)c1 [Example 1.43, (S)-(5-(3,5-difluorophenyl)-4,5-dihydro-1H-pyrazol-1-yl)(3-fluoro-3-phenylazetidin-1-yl)methanone] | 775 nM
O=C(N1CC(O)(C(F)(F)F)C1)N1N=CC[C@H]1c1cc(F)cc(F)c1 [Example 1.27, (S)-(5-(3,5-difluorophenyl)-4,5-dihydro-1H-pyrazol-1-yl)(3-hydroxy-3-(trifluoromethyl)azetidin-1-yl)methanone] | 988 nM
O=C(N1CC(C(F)F)C1)N1N=CC[C@H]1c1cc(F)cc(F)c1 [Example 1.37, (S)-(3-(difluoromethyl)azetidin-1-yl)(5-(3,5-difluorophenyl)-4,5-dihydro-1H-pyrazol-1-yl)methanone] | 22.6 nM
O=C(N1CC2(CCCO2)C1)N1N=CC[C@H]1c1cc(F)cc(F)c1 [Example 1.26, (S)-(5-(3,5-difluorophenyl)-4,5-dihydro-1H-pyrazol-1-yl)(5-oxa-2-azaspiro[3.4]octan-2-yl)methanone] | 47.4 nM
O=C(N1CC(Cc2ccccc2)C1)N1N=CC[C@H]1c1cc(F)cc(F)c1 [Example 1.14, (S)-(3-benzylazetidin-1-yl)(5-(3,5-difluorophenyl)-4,5-dihydro-1H-pyrazol-1-yl)methanone, TFA salt] | 6.1 nM
Cc1ccccc1OC1CN(C(=O)N2N=CC[C@H]2c2cc(F)cc(F)c2)C1 [Example 1.49, (S)-(5-(3,5-difluorophenyl)-4,5-dihydro-1H-pyrazol-1-yl)(3-(o-tolyloxy)azetidin-1-yl)methanone] | 11.7 nM
CS(=O)(=O)N1CCC2(CC1)CN(C(=O)N1N=CC[C@H]1c1cc(F)cc(F)c1)C2 [Example 1.20, (S)-(5-(3,5-difluorophenyl)-4,5-dihydro-1H-pyrazol-1-yl)(7-(methylsulfonyl)-2,7-diazaspiro[3.5]nonan-2-yl)methanone] | 1320 nM
O=C(N1CC(OCc2ncc(Br)s2)C1)N1N=CC[C@H]1c1cc(F)cc(F)c1 [Example 1.52, (S)-(3-((5-bromothiazol-2-yl)methoxy)azetidin-1-yl)(5-(3,5-difluorophenyl)-4,5-dihydro-1H-pyrazol-1-yl)methanone] | 23.9 nM
O=C(N1CC2(CCCOC2)C1)N1N=CC[C@H]1c1cc(F)cc(F)c1 [Example 1.53, (S)-(5-(3,5-difluorophenyl)-4,5-dihydro-1H-pyrazol-1-yl)(6-oxa-2-azaspiro[3.5]nonan-2-yl)methanone] | 530 nM
COC(=O)C1CC12CN(C(=O)N1N=CC[C@H]1c1cc(F)cc(F)c1)C2 (mixture of isomers) [Example 1.47, methyl (R and S)-5-((S)-5-(3,5-difluorophenyl)-4,5-dihydro-1H-pyrazole-1-carbonyl)-5-azaspiro[2.3]hexane-1-carboxylate] | 195 nM
CC1(C#N)CN(C(=O)N2N=CC[C@H]2c2cc(F)cc(F)c2)C1 [Example 1.36, (S)-1-(5-(3,5-difluorophenyl)-4,5-dihydro-1H-pyrazole-1-carbonyl)-3-methylazetidine-3-carbonitrile] | 62.3 nM
O=C(N1CC(O)(c2ccccc2)C1)N1N=CC[C@H]1c1cc(F)cc(F)c1 [Example 1.44, (S)-(5-(3,5-difluorophenyl)-4,5-dihydro-1H-pyrazol-1-yl)(3-hydroxy-3-phenylazetidin-1-yl)methanone] | 811 nM
O=C(N1CC2(C1)CN(c1cnccn1)C2)N1N=CC[C@H]1c1cc(F)cc(F)c1 [Example 1.35, (S)-(5-(3,5-difluorophenyl)-4,5-dihydro-1H-pyrazol-1-yl)(6-(pyrazin-2-yl)-2,6-diazaspiro[3.3]heptan-2-yl)methanone] | 5150 nM

Second part, the molecule after the results:

EC50 | SMILES
46.7 nM | CC(c1ccccc1)C1CN(C(=O)N2N=CC[C@H]2c2cc(F)cc(F)c2)C1 (single isomer, unassigned) [Example 2.43, ((S)-5-(3,5-difluorophenyl)-4,5-dihydro-1H-pyrazol-1-yl)(3-((S or R)-1-phenylethyl)azetidin-1-yl)methanone]
20.5 nM | C[C@H]1[C@@H](Oc2ccnc(C#N)c2)CN1C(=O)N1N=CC[C@H]1c1cc(F)cc(F)c1 [Example 2.36, 4-(((25,3S)-1-((S)-5-(3,5-difluorophenyl)-4,5-dihydro-1H-pyrazole-1-carbonyl)-2-methylazetidin-3-yl)oxy)picolinonitrile]
578 nM | O=C(N1CC(O)(C(F)(F)F)C1)N1N=CC[C@H]1c1ccc(Cl)cc1 [Example 2.11, (S)-(5-(4-chlorophenyl)-4,5-dihydro-1H-pyrazol-1-yl)(3-hydroxy-3-(trifluoromethyl)azetidin-1-yl)methanone]
17.1 nM | CC1(Oc2ccc(F)cc2)CN(C(=O)N2N=CC[C@H]2c2cncc(F)c2)C1 (single isomer, unassigned) [Example 2.31]
5000 nM | O=C(N1CC(Oc2ccccc2)C1)N1N=CC[C@@H]1c1ccccc1 (single isomer, unassigned) [Example 2.4]
7.8 nM | C[C@@H]1[C@@H](Oc2ccc(F)cc2)CN1C(=O)N1N=CC[C@H]1c1cc(F)cc(F)c1 [Example 2.26, ((S)-5-(3,5-difluorophenyl)-4,5-dihydro-1H-pyrazol-1-yl)((2R,3S)-3-(4-fluorophenoxy)-2-methylazetidin-1-yl)methanone]
6.7 nM | O=C(N1CC(Nc2ccccc2)C1)N1N=CC[C@H]1c1cc(F)cc(F)c1 [Example 2.3, (S)-(5-(3,5-difluorophenyl)-4,5-dihydro-1H-pyrazol-1-yl)(3-(phenylamino)azetidin-1-yl)methanone]
11 nM | COC1CN(C(=O)N2N=CC[C@H]2c2cc(F)cc(F)c2)C1 [Example 2.1, (S)-(5-(3,5-difluorophenyl)-4,5-dihydro-1H-pyrazol-1-yl)(3-methoxyazetidin-1-yl)methanone]
38.1 nM | CSc1nc(C)cc(OC2CN(C(=O)N3N=CC[C@H]3c3cc(F)cc(F)c3)C2)n1 [Example 3.4, (S)-(5-(3,5-difluorophenyl)-4,5-dihydro-1H-pyrazol-1-yl)(3-((6-methyl-2-(methylthio)pyrimidin-4-yl)oxy)azetidin-1-yl)methanone, TFA salt]
6.8 nM | C[C@H]1[C@@H](Oc2ccc(F)cc2)CN1C(=O)N1N=CC[C@H]1c1cc(F)cc(F)c1 [Example 2.27, ((S)-5-(3,5-difluorophenyl)-4,5-dihydro-1H-pyrazol-1-yl)((2S,3S)-3-(4-fluorophenoxy)-2-methylazetidin-1-yl)methanone]
25.7 nM | C[C@@H]1[C@H](Oc2ccc(F)cc2)CN1C(=O)N1N=CC[C@H]1c1ccc(Cl)cc1 [Example 2.20, ((S)-5-(4-chlorophenyl)-4,5-dihydro-1H-pyrazol-1-yl)((2R,3R)-3-(4-fluorophenoxy)-2-methylazetidin-1-yl)methanone]
12.3 nM | Cc1ncc([C@@H]2CC=NN2C(=O)N2C[C@H](Oc3ccc(F)cc3)[C@@H]2C)cc1F [Example 2.19, ((S)-5-(5-fluoro-6-methylpyridin-3-yl)-4,5-dihydro-1H-pyrazol-1-yl)((2S,3S)-3-(4-fluorophenoxy)-2-methylazetidin-1-yl)methanone]
